From patent US20020115728A1, “Compositions and methods for treating cardiovascular disorders” (priority 2000, published 2002)
Where two headings read alike, the source gives them in different places. Marks after values point to notes of the source that are not given here.

Columns and labels:
aortas of apoE−/− mice = test: Aortic lipids, oxidised lipids and antioxidants by HPLC of aortic homogenates; assay type: in vivo; conditions: 24 weeks
Procedure: Male C57BL/6J mice, homozygous for the disrupted apoE gene (apoE−/−) were fed standard chow (Lab-Feed, Sydney, Australia) until aged 10 weeks. […] The high fat diet (control and probucol-supplemented) was prepared, according to the specifications of the Harlan Teklad diet TD88137.
After bleeding, mice were gravity-perfused for 5 min with DPBS containing 20 μM BHT and 1 mM EDTA (Buffer A) and aortas removed as described in Letters J M, et al (1999). Briefly, hearts, ascending and descending aortas (past the femoral junction) were excised and carefully cleaned. […] Once cleaned, aortas were separated from the heart taking care to include all aortic material while avoiding heart tissue. To obtain sufficient material for HPLC analysis (i.e., 30-40 mg wet weight tissue) it was necessary to pool 7-8 aortas. Separate pools of aortas were prepared for both groups and then immediately frozen in Buffer A and stored at −80° C. until analyses.
Pooled aortas were snap frozen in liquid nitrogen, pulverised, resuspended in Buffer A, homogenised and then either treated with metaphosphoric acid (for ascorbate) or extracted and the hexane fraction analysed for lipid-soluble antioxidants, cholesterol (C), choleseteryl esters (CE), lipid hydroperoxides (LOOH) and cholesteryl ester hydroxides (CE-OH) by HPLC as described in Methods Enzymol. 1994;233:469-489. LOOH and CE-OH were measured as markers of lipoprotein lipid oxidation, as they are the primary and major oxidation products formed when lipoproteins from apoE−/− mice undergo oxidation. […] All compounds were quantified by peak area comparison with authentic standards, and protein determined.
ApoE−/− mice were fed either a control or probucol-supplemented diet for 24 weeks before aortas and plasma were analysed.

α-tocopheroxyl radical = test: Tocopheroxyl radical attenuating ability (TRAA); assay type: biochemical; conditions: kobs with (+) or without (−) test compound
[1] = Plasma drug level of bisphenol; assay type: in vivo, mice; conditions: for concentration at 14 weeks: male, apoE−/−;LDLr−/−, mouse, plasma, oral, 0.03 % (w/w) in chow, mice ranked by plasma drug level
Procedure: (§1) Male apoE−/−;LDLr−/− mice (59 total), were maintained on standard R3 chow from weaning to 8 weeks of age (young controls, n=9). Thereafter mice received R3 chow with (n=25) or without supplemented bisphenol (n=25) for an additional 14 weeks. Standard R3-mouse chow was fortified with bisphenol at 0.03% (w/w), a level of supplementation shown in pilot experiments to afford circulating concentrations of the drug of ˜200 μM, considered suitable to test the effect of the co-antioxidant on atherogenesis in this animal model. At 22 weeks of age 10 and 15 mice of each group were used for biochemical and histological analyses, respectively. Due to the small size, it was necessary to pool aortas to yield sufficient material for biochemical analyses.
(§2) Analyses of oxidised and non-oxidised lipids were carried out by RP-HPLC as described in Example 1 except that in some instances UV234 nm rather than post-column chemiluminescence detection was used to measure C18:2-OOH and the corresponding hydroxides (together referred to as CE-O(O)H) which show similar retention times under these chromatographic conditions. α-TQ, α-TOH, α-tocotrienol, D-isosascorbate and ascorbate were determined by HPLC with electrochemical detection. For oxidation of plasma, unesterified cholesterol (which remained non-oxidised in these experiments) was employed as internal standard for all polyunsaturated, lipid-soluble components analysed. Bisphenol and diphenoquinone were analysed by RP-HPLC: flow 1.5 mL/min, 100% solvent A (MeCN/MeOH/H20 10:10:3, v/v/v) for 0-15 min monitored at 270 nm, followed by 50% solvent A and B (MeCN/MeOH 1:1, v/v) for 15-22 min at 242 nm and then 100% B for 22-28 min at 420 nm. Bisphenol and diphenoquinone eluted at 9 and 27 min, respectively. All compounds were quantified by peak area comparison with authentic standards. […]
Unless otherwise stated lipid and antioxidant levels are expressed as pmol/mg protein. LH, lipid containing bisallylic hydrogens. §Values are expressed as nmol/mg protein. […]

apoE−/−;LDLr−/− mice = test: Plasma lipid and vitamin E levels; assay type: in vivo; conditions: chow with 0.03% bisphenol, 14 weeks
Procedure: as §1, with “Due to the small size, it was necessary to pool aortas to yield sufficient material for biochemical analyses.” left out
as §2, with “Bisphenol and diphenoquinone were analysed by RP-HPLC: flow 1.5 mL/min, 100% solvent A (MeCN/MeOH/H20 10:10:3, v/v/v) for 0-15 min monitored at 270 nm, followed by 50% solvent A and B (MeCN/MeOH 1:1, v/v) for 15-22 min at 242 nm and then 100% B for 22-28 min at 420 nm. Bisphenol and diphenoquinone eluted at 9 and 27 min, respectively.” left out

[2] = system: plasma from apoE−/−;LDLr−/− mice; test: Ex vivo plasma lipid peroxidation initiated by aqueous peroxyl radicals (AAPH); assay type: in vivo
Procedure: Pooled plasma obtained from at least 3 mice receiving control diet (circles) or diet supplemented with bisphenol (squares) were treated with 5 mM AAPH and incubated at 37° C. At the times indicted aliquots were removed and analysed for α-TOH (A) and CE-O(O)H (B). 100% α-TOH levels correspond to 28±3 and 20±2 μM for control and H 212/43 plasma, respectively. Data represents the mean±SD (n=4 independent experiments).
Oxidation of plasma, pooled from=3 mice was carried out by addition of the peroxyl radical generator (final concentrations 5 mM) and incubating the reaction mixture at 37° C. under air. Aliquots (50 μL) of the reaction mixture were removed, extracted in methanol/hexane (1:5, v/v), and the consumption of antioxidants and accumulation of lipid oxidation products determined.

[3] = lipid-standardised oxidised lipids, 1% probucol
[4] = pooled plasma of bisphenol-treated mice, 5 mM AAPH, 37° C., 12 h

Compound: CC(C)(Sc1cc(C(C)(C)C)c(O)c(C(C)(C)C)c1)Sc1cc(C(C)(C)C)c(O)c(C(C)(C)C)c1 [Probucol, probucol]
- effect on aortic content of lipid standardised oxidized lipids (aortas of apoE−/− mice; 1% probucol): did not affect
- Aorta Ascorbate (aortas of apoE−/− mice; 1% probucol, aorta): 322 ± 320 pmol/mgp
- Aorta C18:2 (aortas of apoE−/− mice; 1% probucol, aorta): 12 ± 6 nmol/mgp
- Aorta C20:4 (aortas of apoE−/− mice; 1% probucol, aorta): 4.0 ± 2 nmol/mgp
- Aorta CE-OH (aortas of apoE−/− mice; 1% probucol, aorta): 0.17 ± 0.08 nmol/mgp
- Aorta LOOH (aortas of apoE−/− mice; 1% probucol, aorta): 0.080 nmol/mgp
- Aorta Total coenzyme Q (aortas of apoE−/− mice; 1% probucol, aorta): 139 ± 57 pmol/mgp
- Aorta Ubiquinone-9 (aortas of apoE−/− mice; 1% probucol, aorta): 114 ± 47 pmol/mgp
- Aorta Ubiquinone-10 (aortas of apoE−/− mice; 1% probucol, aorta): 25 ± 10 pmol/mgp
- Aorta α-Tocopherol (aortas of apoE−/− mice; 1% probucol, aorta): 380 pmol/mgp
- Aorta α-Tocopherylquinone (aortas of apoE−/− mice; 1% probucol, aorta): 30 ± 2 pmol/mgp
- Aorta C (cholesterol) (aortas of apoE−/− mice; high fat diet with 1% probucol, aorta): 173 ± 60 nmol/mgp
- Aortic CE-OH/LH (× 10^3) (aortas of apoE−/− mice; [3]): 12.5 ± 6.7 × 10^3
- Aortic LOOH/LH (× 10^3) (aortas of apoE−/− mice; [3]): 4.4^a × 10^3
- decrease of aortic concentration of C vs controls (aortas of apoE−/− mice; per protein, 1% probucol): 5.6 fold
- decrease of aortic concentration of total CoQ vs controls (aortas of apoE−/− mice; per protein, 1% probucol): 2.5 fold
- decrease of aortic concentration of vitamin E vs controls (aortas of apoE−/− mice; per protein, 1% probucol): 2.9 fold

Compound: CC(C)(C)c1cc(-c2cc(C(C)(C)C)c(O)c(C(C)(C)C)c2)cc(C(C)(C)C)c1O [Bisphenol, bisphenol]
- TRAA (decay of tocopheroxyl radical; kobs(+)/kobs(−)) (α-tocopheroxyl radical): Immediate decay
- circulating concentrations of the drug, pilot experiments ([1]; chow fortified with bisphenol at 0.03% (w/w)): ~200 µM
- concentration at 14 weeks ([1]; Bisphenol [high] aorta pool, read-out: plasma concentration of bisphenol, high group): 212 ± 50 µM
- concentration at 14 weeks ([1]; Bisphenol [low] aorta pool, read-out: plasma concentration of bisphenol, low group): 106 ± 40 µM
- Plasma Triglycerides (apoE−/−;LDLr−/− mice): 6.3 (0.5) mm
- CE-OOH detected after 12 h of ex vivo oxidation [2, 4]: < 1 µM
- α-TOH after 12 h of ex vivo oxidation [2, 4]: remained unaltered
- 100% α-TOH level of plasma before oxidation ([2]; pooled plasma of mice receiving bisphenol diet): 20 ± 2 µM
